≈ marks a conversion by molar mass, not a printed value. Where two headings read alike, the source gives them in different places.
How the values were obtained:
[1] = tested on: multi-drug resistant (MDR) lung carcinoma cell line H69/LX4; assay: cells; conditions: for INCREASED SENSITIVITY H69/Lx4: Table VIII, values equal IC50 NONE / IC50 with VB 25 ng/ml of Table VII, 10080 min
Method: The riminophenazines of the above formula (I), contain an imino group. […] The potency of compounds of the above general formula, as inhibitors of multi-drug resistance, was assessed by sensitization of a P-glycoprotein positive cell line to drugs associated with this form of resistance. A human small cell lung cancer cell line H 69/P as well as a multi-drug resistance (MDR) sub-line H69/LX4 were used. These cell lines were obtained from the Medical Research Council Clinical Oncology and Radiotherapeutics Unit, Hills Road, Cambridge, England. The H69/LX4 line was selected in vitro by progressive exposure to increasing concentrations of doxorubicin in order to increase P-glycoprotein expression.
The cell lines used were human small cell lung cancer cell line HP69/P and a multi-drug resistant (MDR) sub-line H69/LX4, both of which were supplied by the MRC Clinical Oncology and Radiotherapeutics Unit, Hills Road, Cambridge, England. The maintenance of the cell lines and drug response assays was done as described by Twentyman et al in British Journal of Cancer Volume 65 pages 335-340. The H69/LX4 line was originally described by Twentyman et al in British Journal of Cancer Volume 53, pages 529-637 (1986).
The data in parenthesis represents fold sensitivity compared with the chemotherapeutic agent without the MDR inhibitor.
The results obtained, are illustrated graphically in FIGS. 4 to 7 of the accompanying drawings.
(§1) The general procedure set forth above was followed, i.e. 7 days incubation in the4 presence of doxorubicin at 12,5 ng/ml or vinblastine at 25 or 3 ng/ml.
(§2) The effects were examined over a seven (7) day exposure to different concentrations of B4119 and B4125 on the sensitivity of a doxorubicin resistant leukaemia cell line (K562/MMB) and a lung carcinoma cell line (H69/LX4) to doxorubicin (dox) and vinblastine (VB) using the MTT assay.

[2] = tested on: MDR leukaemia cell line K562/MMB; assay: cells; conditions: for INCREASED SENSITIVITY K 562/MMB: Table VIII, values equal IC50 NONE / IC50 with VB 3 ng/ml of Table VII, 10080 min; for MDR activity / sensitivity against cell line K562/MMP: compared with known reference compound B4100
Method: A third cell line (562/MMB) used was a MDR leukemia cell line selected in vitro by progressive exposure to increasing concentrations of vinblastine in order to increase P-glycoprotein expression. This cell line was developed in the Department of Immunology, University of Pretoria from K562 (ATCC CCL 243) supplied by Highveld Biological (Pty) Ltd, Sandton.
as §1, §2

[3] = Homo sapiens, 168 h, read-out: IC 50 H69/Lx4 NONE
[4] = Homo sapiens, read-out: IC 50 H69/Lx4 DOX 12 ng/ml
[5] = Homo sapiens, read-out: IC 50 H69/Lx4 VB 25 ng/ml
[6] = Homo sapiens, K562, read-out: IC 50 K562/MMB VB 3 ng/ml, Table VII, with vinblastine 3 ng/ml
[7] = Homo sapiens, K562, 168 h, read-out: IC 50 K562/MMB NONE, Table VII, riminophenazine alone, 7 day
[8] = Homo sapiens, K562, read-out: IC 50 K562/MMB DOX 12 ng/ml, Table VII, with doxorubicin 12 ng/ml

COc1cccc2c1C(=O)c1c(O)c3c(c(O)c1C2=O)C[C@@](O)(C(=O)CO)C[C@@H]3O[C@H]1C[C@H](N)[C@H](O)[C@H](C)O1 [Doxorubicin, reference compound]
cytotoxicity at 0.0125 µg/mL ([1]; Homo sapiens, 168 h, read-out: cytotoxic activity of chemotherapeutic agent at the concentration used with the riminophenazine): < 10% | cytotoxicity at 0.0125 µg/mL ([2]; Homo sapiens, K562, 168 h, read-out: cytotoxic activity of chemotherapeutic agent at the concentration used with the riminophenazine): < 10%

CO[C@@]12[C@H](COC(N)=O)C3=C(C(=O)C(C)=C(N)C3=O)N1C[C@@H]1N[C@@H]12 [Mitomycin C, reference compound]
IC50 ([1]; Homo sapiens, 168 h, read-out: IC50 of chemotherapeutic agent, MDR inhibitor None): 0.1 µg/mL (≈ 0.299 µM)

CC1(C)CC(N=c2cc3n(-c4cccc(Cl)c4)c4ccc(Cl)cc4nc-3cc2Nc2cccc(Cl)c2)CC(C)(C)N1 [Compound B4123, N,5-bis(3-chlorophenyl)-8-chloro-3,5-dihydro-3[(2',2',6',6'-tetramethyl-4-piperidyl)-imino]-2-phenazinamine]
IC50 [1, 3]: 1.18 µg/mL (≈ 1.94 µM) | IC50 [1, 4]: 1.02 µg/mL (≈ 1.69 µM) | IC50 [1, 5]: 0.251 µg/mL (≈ 0.415 µM) | INCREASED SENSITIVITY H69/Lx4 [1]: 4.69 | IC50 [2, 6]: 0.049 µg/mL (≈ 0.081 µM) | INCREASED SENSITIVITY K 562/MMB [2]: 6.80 | MDR activity / sensitivity against cell line K562/MMP [2]: exceptionally good activity

COc1ccc(Nc2cc3nc4ccccc4n(-c4ccc(OC)cc4)c-3cc2=NC2CC(C)(C)NC(C)(C)C2)cc1 [Compound B4174, N,5-bis(4-methoxyphenyl)-3,5-dihydro-3-[(2',2',6',6'-tetramethyl-4-piperidyl)-imino]-2-phenazinamine]
IC50 [1, 3]: 0.462 µg/mL (≈ 0.822 µM) | IC50 [1, 4]: 0.587 µg/mL (≈ 1.04 µM) | IC50 [1, 5]: 0.535 µg/mL (≈ 0.952 µM) | INCREASED SENSITIVITY H69/Lx4 [1]: 0.86 | INCREASED SENSITIVITY K 562/MMB [2]: 1.78

CCN(CC)CCCN=c1cc2n(-c3ccc(Cl)c(Cl)c3)c3ccccc3nc-2cc1Nc1ccc(Cl)c(Cl)c1 [Compound B4154]
IC50 [1, 3]: 1.33 µg/mL (≈ 2.17 µM) | IC50 [1, 4]: 0.648 µg/mL (≈ 1.06 µM) | IC50 [1, 5]: 0.378 µg/mL (≈ 0.616 µM) | INCREASED SENSITIVITY H69/Lx4 [1]: 3.52 | INCREASED SENSITIVITY K 562/MMB [2]: 2.99

CC1(C)CC(N=c2cc3n(-c4ccccc4)c4ccccc4nc-3cc2Nc2ccccc2)CC(C)(C)N1 [Compound B3962, N,5-bis(phenyl)-3,5-dihydro-3-[(2',2',6',6'-tetramethyl-4-piperidyl)imino]-2-phenazinamine]
IC50 [1, 3]: 0.563 µg/mL (≈ 1.12 µM) | IC50 [1, 4]: 0.427 µg/mL (≈ 0.851 µM) | IC50 [1, 5]: 0.262 µg/mL (≈ 0.522 µM) | INCREASED SENSITIVITY H69/Lx4 [1]: 2.15 | INCREASED SENSITIVITY K 562/MMB [2]: 4.07

CC1(C)CC(N=c2cc3n(-c4cccc(Cl)c4)c4ccccc4nc-3cc2Nc2cccc(Cl)c2)CC(C)(C)N1 [Compound B4112, N,5-bis(3-chlorophenyl)-3,5-dihydro-3-[(2',2',6',6'-tetramethyl-4-piperidyl)-imino]-2-phenazinamine]
MDR activity against the cell line H69/LX4 [1]: very good activity | IC50 [1, 3]: 0.62 µg/mL (≈ 1.09 µM) | IC50 ([1]; Homo sapiens, read-out: IC50, plus VB): 0.029 µg/mL | IC50 ([1]; Homo sapiens, read-out: IC50, plus doxo): 0.62 µg/mL | IC50 [1, 4]: 0.175 µg/mL (≈ 0.307 µM) | IC50 [1, 5]: 0.029 µg/mL (≈ 0.0508 µM) | INCREASED SENSITIVITY H69/Lx4 [1]: 21.38 | direct cytotoxic activity [2]: direct cytotoxic activity in this cell line at reasonably low concentrations | IC50 [2, 7]: 0.156 µg/mL (≈ 0.273 µM) | IC50 ([2]; Homo sapiens, K562, read-out: IC50, alone, Table V, K562/MMB (first value column, head not given)): 0.156 µg/mL (≈ 0.273 µM) | IC50 ([2]; Homo sapiens, K562, read-out: IC50, plus VB, Table V, K562/MMB, vinblastine 3 ng/ml): 0.008 µg/mL | IC50 ([2]; Homo sapiens, K562, read-out: IC50, plus doxo, Table V, K562/MMB, doxorubicin 12 ng/ml): 0.066 µg/mL | IC50 [2, 8]: 0.066 µg/mL (≈ 0.116 µM) | IC50 [2, 6]: 0.008 µg/mL (≈ 0.014 µM) | lowest concentration at which compound was active ([2]; K562/MMB, Example 6): 3 ng/mL | INCREASED SENSITIVITY K 562/MMB [2]: 19.5 | MDR activity / sensitivity against cell line K562/MMP [2]: exceptionally good activity

CC1(C)CC(N=c2cc3n(-c4ccc(Cl)c(C(F)(F)F)c4)c4ccccc4nc-3cc2Nc2ccc(Cl)c(C(F)(F)F)c2)CC(C)(C)N1 [Compound B4163, N,5-bis[(3-trifluoromethyl)-4-chlorophenyl]-3,5-dihydro-3-[(2',2',6',6'-tetramethylpiperidyl)-imino]-2-phenazinamine]
IC50 [1, 3]: 0.972 µg/mL (≈ 1.38 µM) | IC50 [1, 4]: 0.846 µg/mL (≈ 1.2 µM) | IC50 [1, 5]: 0.281 µg/mL (≈ 0.398 µM) | INCREASED SENSITIVITY H69/Lx4 [1]: 3.46 | IC50 [2, 6]: 0.032 µg/mL (≈ 0.0453 µM) | INCREASED SENSITIVITY K 562/MMB [2]: 10.63 | MDR activity / sensitivity against cell line K562/MMP [2]: increased substantially and unexpectedly

CC1(C)CC(N=c2cc3n(-c4cccc(C(F)(F)F)c4)c4ccc(Cl)cc4nc-3cc2Nc2cccc(C(F)(F)F)c2)CC(C)(C)N1 [Compound B4127, N,5-bis(3-trifluoromethylphenyl)-8-chloro-3,5-dihydro-3-[(2',2',6',6'-tetramethyl-4-piperidyl)-imino]-2-phenazinamine]
IC50 [1, 3]: 1.32 µg/mL (≈ 1.97 µM) | IC50 [1, 4]: 1.31 µg/mL (≈ 1.95 µM) | IC50 [1, 5]: 0.454 µg/mL (≈ 0.675 µM) | INCREASED SENSITIVITY H69/Lx4 [1]: 2.91 | INCREASED SENSITIVITY K 562/MMB [2]: 6.07

CC(C)c1ccc(Nc2cc3nc4cc(Cl)ccc4n(-c4ccc(C(C)C)cc4)c-3cc2=NC2CC(C)(C)NC(C)(C)C2)cc1 [Compound B4159, N,5-bis(4-isopropylphenyl)-8-chloro-3,5-dihydro-3-[(2',2',6',6'-tetramethyl-4-piperidyl)-imino]-2-phenazinamine]
IC50 [1, 3]: 1.55 µg/mL (≈ 2.5 µM) | IC50 [1, 4]: 1.09 µg/mL (≈ 1.76 µM) | IC50 [1, 5]: 0.268 µg/mL (≈ 0.432 µM) | INCREASED SENSITIVITY H69/Lx4 [1]: 5.79 | INCREASED SENSITIVITY K 562/MMB [2]: 7.02 | MDR activity / sensitivity against cell line K562/MMP [2]: exceptionally good activity

CC1(C)CC(N=c2cc3n(-c4ccc(Cl)cc4)c4ccccc4nc-3cc2Nc2ccc(Cl)cc2)CC(C)(C)N1 [Compound B3786]
IC50 [1, 3]: 0.608 µg/mL (≈ 1.07 µM) | IC50 [1, 4]: 0.597 µg/mL (≈ 1.05 µM) | IC50 [1, 5]: 0.169 µg/mL (≈ 0.296 µM) | INCREASED SENSITIVITY H69/Lx4 [1]: 3.60

CC1(C)CC(N=c2cc3n(-c4ccc(OC(F)(F)F)cc4)c4ccccc4nc-3cc2Nc2ccc(OC(F)(F)F)cc2)CC(C)(C)N1 [Compound B4177, N,5-bis(4-trifluoromethoxyphenyl)-3,5-dihydro-3-[(2',2',6',6'-tetramethyl-4-piperidyl)-imino)-2-phenazinamine]
MDR activity against the cell line H69/LX4 [1]: very good activity | IC50 [1, 3]: 0.6 µg/mL (≈ 0.896 µM) | IC50 [1, 4]: 0.852 µg/mL (≈ 1.27 µM) | IC50 [1, 5]: 0.056 µg/mL (≈ 0.0836 µM) | INCREASED SENSITIVITY H69/Lx4 [1]: 10.71

CC1(C)CC(N=c2cc3n(-c4ccccc4)c4ccc(Cl)cc4nc-3cc2Nc2ccccc2)CC(C)(C)N1 [Compound B4019]
IC50 [1, 3]: 1.03 µg/mL (≈ 1.92 µM) | IC50 [1, 4]: 0.771 µg/mL (≈ 1.44 µM) | IC50 [1, 5]: 0.488 µg/mL (≈ 0.91 µM) | INCREASED SENSITIVITY H69/Lx4 [1]: 2.11

Cc1ccc(Nc2cc3nc4ccccc4n(-c4ccc(C)cc4)c-3cc2=NC2CC(C)(C)NC(C)(C)C2)cc1 [Compound B4070, N,5-bis(4-methylphenyl)-3,5-dihydro-3-[(2',2',6',6'-tetramethyl-4-piperidyl)imino]-2-phenazinamine]
IC50 [1, 3]: 0.525 µg/mL (≈ 0.991 µM) | IC50 [1, 4]: 0.312 µg/mL (≈ 0.589 µM) | IC50 [1, 5]: 0.2 µg/mL (≈ 0.378 µM) | INCREASED SENSITIVITY H69/Lx4 [1]: 2.63 | IC50 [2, 7]: 0.159 µg/mL (≈ 0.3 µM) | IC50 ([2]; Homo sapiens, K562, 168 h, read-out: IC 50 of riminophenazine, Doxorubicin, Table IV, K562/MMB, with doxorubicin 12 ng/ml, 7 day): 0.193 µg/mL (≈ 0.364 µM) | IC50 ([2]; Homo sapiens, K562, 168 h, read-out: IC 50 of riminophenazine, None, Table IV, K562/MMB, riminophenazine alone, 7 day, mean of 2 experiments): 0.159 µg/mL (≈ 0.3 µM) | IC50 ([2]; Homo sapiens, K562, 168 h, read-out: IC 50 of riminophenazine, Vinblastine, Table IV, K562/MMB, with vinblastine 3 ng/ml, 7 day): 0.054 µg/mL (≈ 0.102 µM) | IC50 [2, 8]: 0.193 µg/mL (≈ 0.364 µM) | IC50 [2, 6]: 0.054 µg/mL (≈ 0.102 µM) | INCREASED SENSITIVITY K 562/MMB [2]: 2.94
